Where only a bound is given, the exact number is not on record here.

Drawing on US10758534B2 (Vertex Pharmaceuticals Incorporated, priority 2014, dated 2020), this text covers EC30 for 28 compounds.

The target of the first test is T1, F508del (Homo sapiens, UniProt P13569, DEL508-508).
T1 construct: expressed in transfected cells
T1 sequence (P13569 with tags, fused parts or gaps DEL508-508): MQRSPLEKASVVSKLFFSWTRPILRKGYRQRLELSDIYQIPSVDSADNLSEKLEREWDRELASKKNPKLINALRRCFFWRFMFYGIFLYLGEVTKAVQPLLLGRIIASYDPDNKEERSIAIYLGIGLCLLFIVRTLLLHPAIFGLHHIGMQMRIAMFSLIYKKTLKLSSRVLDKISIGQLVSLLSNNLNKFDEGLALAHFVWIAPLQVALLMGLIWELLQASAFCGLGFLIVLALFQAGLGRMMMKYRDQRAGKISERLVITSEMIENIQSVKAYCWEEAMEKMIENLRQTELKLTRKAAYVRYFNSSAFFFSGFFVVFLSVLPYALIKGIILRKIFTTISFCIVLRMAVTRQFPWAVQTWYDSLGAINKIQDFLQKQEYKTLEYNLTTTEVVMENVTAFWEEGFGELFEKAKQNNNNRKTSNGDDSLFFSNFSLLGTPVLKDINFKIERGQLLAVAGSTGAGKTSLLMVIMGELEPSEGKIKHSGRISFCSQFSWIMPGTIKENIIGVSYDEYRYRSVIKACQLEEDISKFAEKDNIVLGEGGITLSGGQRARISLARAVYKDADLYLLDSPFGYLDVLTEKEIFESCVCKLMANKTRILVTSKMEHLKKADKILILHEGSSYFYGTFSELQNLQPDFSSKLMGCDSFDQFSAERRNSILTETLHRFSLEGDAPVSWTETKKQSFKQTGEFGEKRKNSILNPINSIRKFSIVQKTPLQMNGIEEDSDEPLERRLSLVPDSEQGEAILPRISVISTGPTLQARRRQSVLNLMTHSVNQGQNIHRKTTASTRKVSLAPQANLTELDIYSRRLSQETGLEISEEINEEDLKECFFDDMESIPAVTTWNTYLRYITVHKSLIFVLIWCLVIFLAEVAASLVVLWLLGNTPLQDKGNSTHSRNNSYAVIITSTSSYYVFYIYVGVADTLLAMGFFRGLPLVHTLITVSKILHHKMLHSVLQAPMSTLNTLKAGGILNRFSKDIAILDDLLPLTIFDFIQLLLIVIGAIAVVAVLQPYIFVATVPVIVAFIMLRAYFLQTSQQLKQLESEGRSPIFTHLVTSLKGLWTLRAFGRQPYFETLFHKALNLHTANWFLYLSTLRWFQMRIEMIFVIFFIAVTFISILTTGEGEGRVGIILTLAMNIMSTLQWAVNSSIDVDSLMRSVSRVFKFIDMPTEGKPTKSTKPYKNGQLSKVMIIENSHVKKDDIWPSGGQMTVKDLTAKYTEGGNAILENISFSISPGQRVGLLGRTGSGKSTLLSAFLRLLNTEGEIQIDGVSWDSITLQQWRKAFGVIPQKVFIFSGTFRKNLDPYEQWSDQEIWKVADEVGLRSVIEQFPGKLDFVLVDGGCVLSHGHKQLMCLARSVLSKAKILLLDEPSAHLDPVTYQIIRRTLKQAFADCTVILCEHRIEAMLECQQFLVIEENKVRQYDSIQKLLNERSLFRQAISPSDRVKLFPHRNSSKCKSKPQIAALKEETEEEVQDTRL
Briefly: Protocol 2: FRET membrane potential optical assay (VIPR), identification of correction compounds. The format is cell-based. Particulars: F508del CFTR modulator activity; compounds of Table 1; read-out: EC30. The procedure, abridged:
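Corrector readout: membrane-potential FRET (CC2-DMPE donor, DiSBAC2(3) acceptor) on VIPR II after Cl⁻-free gluconate bath with 10 μM forskolin and 20 μM genistein. Before this, F508del-expressing NIH3T3 cells were exposed to test compound for 16 h at 37 °C without serum; 27 °C incubation served as temperature-correction control.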
On to `CC(C)COc1cc(F)cc(-c2cc(N3C[C@@H](C)CC3(C)C)c(C(=O)NS(=O)(=O)c3cccc(N)n3)cn2)c1` [Compound 2679, N-[(6-amino-2-pyridyl)sulfonyl]-6-(3-fluoro-5-isobutoxy-phenyl)-4-[(4S)-2,2,4-trimethylpyrrolidin-1-yl]pyridine-3-carboxamide], for which the EC30 was 3000 to 10000 nM.

With `CCCCCCN1CCN(c2cccc(S(=O)(=O)NC(=O)c3cccnc3N3CC(C)CC3(C)C)n2)CC1` (stereo not shown) [Compound 2423, N—[[6-(4-hexylpiperazin-1-yl)-2-pyridyl]sulfonyl]-2-(2,2,4-trimethylpyrrolidin-1-yl)pyridine-3-carboxamide], the EC30 was < 3000 nM. Still for that read-out and setting: to `C[C@@H]1CN(c2nc(C(C)(C)C)c(C3=CCN(C(=O)CC4CCCCC4)CC3)cc2C(=O)NS(=O)(=O)c2cccc(N)n2)C(C)(C)C1` [Compound 2596, N-[(6-amino-2-pyridyl)sulfonyl]-6-tert-butyl-5-[1-(2-cyclohexylacetyl)-3,6-dihydro-2H-pyridin-4-yl]-2-[(4S)-2,2,4-trimethylpyrrolidin-1-yl]pyridine-3-carboxamide] belongs < 3000 nM; to `COc1cc(C)c(-c2ccc(C(=O)NS(=O)(=O)c3ccc[nH]c3=O)c(N3C[C@@H](C)CC3(C)C)n2)c(C)c1` [Compound 2575, 6-(4-methoxy-2,6-dimethyl-phenyl)-N-[(2-oxo-1H-pyridin-3-yl)sulfonyl]-2-[(4S)-2,2,4-trimethylpyrrolidin-1-yl]pyridine-3-carboxamide], < 3000 nM; to `CCCC(C)Nc1cccc(S(=O)(=O)NC(=O)c2cccnc2N2CC(C)CC2(C)C)n1` (stereo not shown) [Compound 2197, N—[[6-(1-methylbutylamino)-2-pyridyl]sulfonyl]-2-(2,2,4-trimethylpyrrolidin-1-yl)pyridine-3-carboxamide], < 3000 nM. Take `COc1cc(F)cc(-c2ccc(C(=O)NS(=O)(=O)c3ccc[nH]c3=O)c(N3C[C@@H](C)CC3(C)C)n2)c1` [Compound 2527, 6-(3-fluoro-5-methoxy-phenyl)-N-[(2-oxo-1H-pyridin-3-yl)sulfonyl]-2-[(4S)-2,2,4-trimethylpyrrolidin-1-yl]pyridine-3-carboxamide]: the EC30 is < 3000 nM. The same measure, in the same setting: the figure for `C[C@@H]1CN(c2nc(-n3ccc(-c4ccccc4)n3)ccc2C(=O)NS(=O)(=O)c2cccnc2N)C(C)(C)C1` [Compound 2696] is < 3000 nM; for `CC1CN(c2ncccc2C(=O)NS(=O)(=O)c2cccc(OCc3cc(F)cc(F)c3)n2)C(C)(C)C1` (stereo not shown) [Compound 2462, N—[[6-[(3,5-difluorophenyl)methoxy]-2-pyridyl]sulfonyl]-2-(2,2,4-trimethylpyrrolidin-1-yl)pyridine-3-carboxamide] it is < 3000 nM. In the case of `CC(C)CC/C=C/c1cnc(N2CC(C)CC2(C)C)c(C(=O)NS(=O)(=O)c2cccc(N)n2)c1` (stereo not shown) [Compound 2647, N-[(6-amino-2-pyridyl)sulfonyl]-5-[(E)-5-methylhex-1-enyl]-2-(2,2,4-trimethylpyrrolidin-1-yl)pyridine-3-carboxamide], the EC30 was < 3000 nM.

For the compound `Cc1ccc(-c2ccc(C(=O)NS(=O)(=O)c3cccnc3N)c(N3C[C@@H](C)CC3(C)C)n2)cc1C` [Compound 2017, N-[(2-amino-3-pyridyl)sulfonyl]-6-(3,4-dimethylphenyl)-2-[(4S)-2,2,4-trimethylpyrrolidin-1-yl]pyridine-3-carboxamide], the EC30 is < 3000 nM. Consider `CC[C@@H](C)Oc1ncc(-c2ccc(C(=O)NS(=O)(=O)c3cccc(N)n3)c(N3C[C@@H](C)CC3(C)C)n2)cc1C` [Compound 2576, N-[(6-amino-2-pyridyl)sulfonyl]-6-[5-methyl-6-[(1R)-1-methylpropoxy]-3-pyridyl]-2-[(4S)-2,2,4-trimethylpyrrolidin-1-yl]pyridine-3-carboxamide], for which the EC30 is < 3000 nM. For `CC1CN(c2ncc(C3=CCC(C(F)(F)F)CC3)cc2C(=O)NS(=O)(=O)c2cccc(N)n2)C(C)(C)C1` (stereo not shown) [Compound 2510, N-[(6-amino-2-pyridyl)sulfonyl]-5-[4-(trifluoromethyl)cyclohexen-1-yl]-2-(2,2,4-trimethylpyrrolidin-1-yl)pyridine-3-carboxamide], the concentration for an effect of 30% (EC30) is < 3000 nM. Same read-out and setting: to `CC1CN(c2ncccc2C(=O)NS(=O)(=O)c2cccc(Nc3ccc(C(F)(F)F)cc3)n2)C(C)(C)C1` (stereo not shown) [Compound 2292, N—[[6-[4-(trifluoromethyl)anilino]-2-pyridyl]sulfonyl]-2-(2,2,4-trimethylpyrrolidin-1-yl)pyridine-3-carboxamide] belongs < 3000 nM. On the same count and under the same terms, to `CC(C)COc1cccc(-c2cnc(N3CC(C)CC3(C)C)c(C(=O)NS(=O)(=O)c3cccc(N)n3)c2)c1` (stereo not shown) [Compound 2089, N-[(6-amino-2-pyridyl)sulfonyl]-5-(3-isobutoxyphenyl)-2-(2,2,4-trimethylpyrrolidin-1-yl)pyridine-3-carboxamide] belongs < 3000 nM. `COc1ccc(-c2ccc(C(=O)NS(=O)(=O)c3cccnc3N)c(N3C[C@@H](C)CC3(C)C)n2)cc1` [Compound 2667, N-[(2-amino-3-pyridyl)sulfonyl]-6-(4-methoxyphenyl)-2-[(4S)-2,2,4-trimethylpyrrolidin-1-yl]pyridine-3-carboxamide]: the EC30 was < 3000 nM.

Turning to `C[C@@H]1CN(c2nc(C3=CCCN(C(=O)CC(C)(C)C)C3)ccc2C(=O)NS(=O)(=O)c2cccc(N)n2)C(C)(C)C1` [Compound 2650, N-[(6-amino-2-pyridyl)sulfonyl]-6-[1-(3,3-dimethylbutanoyl)-3,6-dihydro-2H-pyridin-5-yl]-2-[(4S)-2,2,4-trimethylpyrrolidin-1-yl]pyridine-3-carboxamide], the EC30 was 3000 to 10000 nM.

The same test, now with this note: Table 3; compounds of Table 1 as modulators of CFTR activity; protocol not stated.
As for `CC(C)COc1cc(F)cc(-c2ccc(C(=O)NS(=O)(=O)c3cccc(N)n3)c(N3CC=CC3)n2)c1` [Compound 453, N-[(6-amino-2-pyridyl)sulfonyl]-2-(2,5-dihydropyrrol-1-yl)-6-(3-fluoro-5-isobutoxy-phenyl)pyridine-3-carboxamide], the EC30 entry is on record as “+++ (“+++” means <3 uM)”. With `CC1CCN(c2nc(-c3cc(F)cc(OC(C)C)c3)ccc2C(=O)NS(=O)(=O)c2nccnc2N)CC1` [Compound 699, N-(3-aminopyrazin-2-yl)sulfonyl-6-(3-fluoro-5-isopropoxy-phenyl)-2-(4-methyl-1-piperidyl)pyridine-3-carboxamide], the EC30 result is reported as “+++ (“+++” means <3 uM)”. On the same count and under the same terms, the entry for `COc1ccc(F)c(-c2ccc(C(=O)NS(=O)(=O)c3ccc[nH]c3=O)c(Oc3c(C)cc(C)cc3C)n2)c1` [Compound 762, 6-(2-fluoro-5-methoxy-phenyl)-N-[(2-oxo-1H-pyridin-3-yl)sulfonyl]-2-(2,4,6-trimethylphenoxy)pyridine-3-carboxamide] is “++ (“++” means between 3 uM and 10 uM)”.

Regarding `COc1ccc(-c2ccc(C(=O)NS(=O)(=O)c3cc[nH]n3)c(Oc3c(C)cc(C)cc3C)n2)c(F)c1` [Compound 374, 6-(2-fluoro-4-methoxy-phenyl)-N-(1H-pyrazol-3-ylsulfonyl)-2-(2,4,6-trimethylphenoxy)pyridine-3-carboxamide], the EC30 result is given as “+++ (“+++” means <3 uM)”. On the same count and under the same terms, the entry for `CC(C)COc1cc(F)cc(-c2ccc(C(=O)NS(=O)(=O)c3cccc(=O)[nH]3)c(N3CCC(C)(C)CC3)n2)c1` [Compound 775, 2-(4,4-dimethyl-1-piperidyl)-6-(3-fluoro-5-isobutoxy-phenyl)-N-[(6-oxo-1H-pyridin-2-yl)sulfonyl]pyridine-3-carboxamide] is “+++ (“+++” means <3 uM)”; for `CC(C)COc1cc(F)cc(-c2ccc(C(=O)NS(=O)(=O)c3cccc(N)n3)c(N3C4CCC3CC4)n2)c1` [Compound 420, N-[(6-amino-2-pyridyl)sulfonyl]-2-(7-azabicyclo[2.2.1]heptan-7-yl)-6-(3-fluoro-5-isobutoxy-phenyl)pyridine-3-carboxamide] it is “+++ (“+++” means <3 uM)”; for `CC(C)Oc1ccc(-c2ccc(C(=O)NS(=O)(=O)c3cccc(N)n3)c(N3CCCC4(CC4)C3)n2)cn1` [Compound 703, N-[(6-amino-2-pyridyl)sulfonyl]-2-(7-azaspiro[2.5]octan-7-yl)-6-(6-isopropoxy-3-pyridyl)pyridine-3-carboxamide] it is “+++ (“+++” means <3 uM)”. The same measure, in the same setting: to `Cc1cc(C)c(Cn2nc(OC(C)c3ccccc3)cc2C(=O)NS(=O)(=O)c2cccc(N)c2)c(C)c1` (stereo not shown) [Compound 278, N-(3-aminophenyl)sulfonyl-5-(1-phenylethoxy)-2-[(2,4,6-trimethylphenyl)methyl]pyrazole-3-carboxamide] belongs “++ (“++” means between 3 uM and 10 uM)”. Turning to `Cc1cccc(C)c1Cn1nc(C2CC3CCC2C3)cc1C(=O)NS(=O)(=O)c1cccc(N)c1` (stereo not shown) [Compound 370, N-(3-aminophenyl)sulfonyl-2-[(2,6-dimethylphenyl)methyl]-5-norbornan-2-yl-pyrazole-3-carboxamide], the EC30 result is recorded as “+++ (“+++” means <3 uM)”.

`Cc1cc(C)c(Oc2nc(C(C)(C)C)ccc2C(=O)N=S(N)(=O)c2cccc(N)n2)c(C)c1` (stereo not shown) [Compound 515, N-[amino-(6-amino-2-pyridyl)-oxo-$1^6-sulfanylidene]-6-tert-butyl-2-(2,4,6-trimethylphenoxy)pyridine-3-carboxamide]: the EC30 result is on record as “+++ (“+++” means <3 uM)”. On the same count and under the same terms, to `C[C@@H]1CC[C@H](C)N1c1nc(-c2cc(F)cc(OCC(C)(C)C)c2)ccc1C(=O)NS(=O)(=O)c1ccc[nH]c1=O` [Compound 572, 6-[3-(2,2-dimethylpropoxy)-5-fluoro-phenyl]-2-[(2S,5R)-2,5-dimethylpyrrolidin-1-yl]-N-[(2-oxo-1H-pyridin-3-yl)sulfonyl]pyridine-3-carboxamide] belongs “+++ (“+++” means <3 uM)”; to `CC(C)COc1cc(F)cc(-c2ccc(C(=O)NS(=O)(=O)c3cccc(N)n3)c(OC3CCC(C)C3C)n2)c1` (stereo not shown) [Compound 503, N-[(6-amino-2-pyridyl)sulfonyl]-2-(2,3-dimethylcyclopentoxy)-6-(3-fluoro-5-isobutoxy-phenyl)pyridine-3-carboxamide], “+++ (“+++” means <3 uM)”.

Usually EC30 stands for the point of the concentration-response curve where the effect stands at 30%.
